ChEMBL document CHEMBL1240307, “A functional genomics approach to the mode of action of apratoxin A” (Nat Chem Biol, 2006)
Active and inactive are the calls of the source. The rule behind the calls is not given here.

Legend:
[1] = species on record: Danio rerio; assay: Inhibition of FGFR-mediated distal pectoral fin development in Zebrafish embryo at 700 nM by in situ hybridization method at 48-60 hrs post fertilization stage
[2] = species on record: Danio rerio; assay: Inhibition of FGFR-mediated fin development in Zebrafish embryo at 40 uM by in situ hybridization method at 48-60 hrs post fertilization stage
[3] = species on record: Danio rerio; assay: Inhibition of FGFR-mediated mkp3 mRNA expression in Zebrafish dorsal forebrain at 40 uM by in situ hybridization analysis; assay type: tissue-based
[4] = species on record: Danio rerio; assay: Inhibition of FGFR-mediated mkp3 mRNA expression in Zebrafish embryo tailbud region at 40 uM by in situ hybridization analysis
[5] = species on record: Danio rerio; assay: Inhibition of FGFR-mediated mkp3 mRNA expression in Zebrafish embryo mid-hind brain boundary at 40 uM by in situ hybridization analysis

`Cc1c[nH]c(/C=C2\C(=O)Nc3ccccc32)c1CCC(=O)O` was tested, and the inhibition [1] was 72%, the inhibition [2] was 76% and the inhibition [3] was “Active”. The inhibition [4] was “Active” and the inhibition [5] was “Active”.
